Data taken from US20260226071A1, “2, 4-DIANILINOPYRIMIDINE-BASED AURORA-A KINASE SELECTIVE DEGRADATION INDUCING COMPOUNDS” (UPPTHERA, INC., priority 2023, published 2026).

Assays:
NCI-H446 cell line = assay: Cell viability assay for NCI-H446 cell line; format: cell-based; conditions: Homo sapiens, NCI-H446, 120 h; H446 cells, 5 days culture, EZ-Cytox; read-out: IC50 value (Level)
Procedure, shortened: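 Viability was measured by absorbance at 450 nm after 4 h with EZ-Cytox, following 5-day exposure of NCI-H446 cells (RPMI 1640, 10% FBS, 37 °C, 5% CO2) to 3-fold serial dilutions from 1000 nM down to 0.15 nM, added 24 h post-seeding.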

Aurora kinase A (AURKA) = target: T1, Aurora kinase A (AURKA) (Homo sapiens, UniProt O14965); assay: Luciferase assay for AURKA in HeLa LgBit (AURKA-HiBit KI) cell line; format: cell-based; conditions: HeLa LgBit (AURKA-HiBit KI) cells, measured after 12 hours
T1 construct: endogenous in cells; host or cells: HeLa LgBit (AURKA-HiBit KI), CRISPR/Cas9 knock-in at the endogenous AURKA locus
T1 sequence (O14965 1-403): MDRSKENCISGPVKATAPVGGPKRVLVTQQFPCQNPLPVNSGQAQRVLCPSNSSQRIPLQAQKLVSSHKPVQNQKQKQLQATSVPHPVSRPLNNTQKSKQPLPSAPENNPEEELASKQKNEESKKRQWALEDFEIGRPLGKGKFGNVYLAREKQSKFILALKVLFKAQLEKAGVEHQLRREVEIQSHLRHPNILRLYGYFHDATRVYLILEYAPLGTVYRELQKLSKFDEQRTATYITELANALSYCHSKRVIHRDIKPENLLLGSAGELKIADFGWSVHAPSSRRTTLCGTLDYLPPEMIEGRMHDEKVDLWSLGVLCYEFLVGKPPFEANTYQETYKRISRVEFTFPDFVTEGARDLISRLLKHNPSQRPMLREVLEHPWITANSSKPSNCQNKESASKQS
Procedure, shortened: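 Test compounds (10 nM or 100 nM) added to AURKA-HiBit knock-in HeLa LgBit cells that had been pre-loaded with Endurazine for 2 h following an 18 h culture at 3×10^4 cells. Endogenous AURKA-HiBit level followed by luminescence (470-480 nm), measured after 12 h.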

| Compound | IC50 (NCI-H446 cell line) | luminescence value (Level) (Aurora kinase A (AURKA); 10 nM compound) | luminescence value (Level) (Aurora kinase A (AURKA); 100 nM compound) |
| --- | --- | --- | --- |
| C[C@@H](CN1CCN(c2ccc(C3CCC(=O)NC3=O)cc2)CC1)C1CCN(NC(=O)c2ccc(Nc3ncc(F)c(Nc4ccc(C(=O)Nc5ccccc5Cl)cc4)n3)cc2)CC1 (stereo partly drawn) [Compound 79, N-(2-chlorophenyl)-4-((2-((4-((4-((2R)-1-(4-(4-(2,6-dioxopiperidin-3-yl)phenyl)piperazin-1-yl)propan-2-yl)piperidin-1-yl)carbamoyl)phenyl)amino)-5-fluoropyrimidin-4-yl)amino)benzamide] | < 50 nM | A (A is <0.3) | A (A is <0.2) |
| CN(CC1CCN(c2ccc(C3CCC(=O)NC3=O)cc2F)CC1)[C@H]1CC[C@H](NC(=O)c2ccc(Nc3ncc(F)c(Nc4ccc(C(=O)Nc5ccccc5Cl)cc4)n3)cc2)CC1 (stereo partly drawn) [Compound 80, N-(2-chlorophenyl)-4-((2-((4-(((1r,4r)-4-(((1-(4-(2,6-dioxopiperidin-3-yl)-2-fluorophenyl)piperidin-4-yl)methyl)(methyl)amino)cyclohexyl)carbamoyl)phenyl)amino)-5-fluoropyrimidin-4-yl)amino)benzamide] | 50 to 100 nM | A (A is <0.3) | A (A is <0.2) |
| CN(CC1CCN(c2ccc(C3CCC(=O)NC3=O)cc2F)CC1)C1CCN(NC(=O)c2ccc(Nc3ncc(F)c(Nc4ccc(C(=O)Nc5ccccc5Cl)cc4)n3)cc2)CC1 (stereo not drawn) [Compound 81, N-(2-chlorophenyl)-4-((2-((4-((4-(((1-(4-(2,6-dioxopiperidin-3-yl)-2-fluorophenyl)piperidin-4-yl)methyl)(methyl)amino)piperidin-1-yl)carbamoyl)phenyl)amino)-5-fluoropyrimidin-4-yl)amino)benzamide] | < 50 nM | A (A is <0.3) | A (A is <0.2) |
| O=C1CCC(c2ccc(N3CCN(CCC4CCN(NC(=O)c5ccc(Nc6ncc(F)c(Nc7ccc(C(=O)Nc8ccccc8Cl)cc7)n6)cc5)CC4)CC3)cc2F)C(=O)N1 (stereo not drawn) [Compound 82, N-(2-chlorophenyl)-4-((2-((4-((4-(2-(4-(4-(2,6-dioxopiperidin-3-yl)-3-fluorophenyl)piperazin-1-yl)ethyl)piperidin-1-yl)carbamoyl)phenyl)amino)-5-fluoropyrimidin-4-yl)amino)benzamide] | < 50 nM | A (A is <0.3) | A (A is <0.2) |
| O=C1CCC(c2ccc(N3CCN(CCC4CCN(NC(=O)c5ccc(Nc6ncc(F)c(Nc7ccc(C(=O)Nc8ccccc8Cl)cc7)n6)cn5)CC4)CC3)cc2)C(=O)N1 (stereo not drawn) [Compound 83, 5-[[4-[4-[(2-chlorophenyl)carbamoyl]anilino]-5-fluoro-pyrimidin-2-yl]amino]-N-[4-[2-[4-[4-(2,6-dioxo-3-piperidyl)phenyl]piperazin-1-yl]ethyl]-1-piperidyl]pyridine-2-carboxamide] | > 200 nM | B (B is 0.3 to 0.5) | A (A is <0.2) |
| Cc1cc(N2CCN(CCC3CCN(NC(=O)c4ccc(Nc5ncc(F)c(Nc6ccc(C(=O)Nc7ccccc7Cl)cc6)n5)cc4)CC3)CC2)ccc1NC1CCC(=O)NC1=O (stereo not drawn) [Compound 85, N-(2-chlorophenyl)-4-((2-((4-((4-(2-(4-(4-((2,6-dioxopiperidin-3-yl)amino)-3-methylphenyl)piperazin-1-yl)ethyl)piperidin-1-yl)carbamoyl)phenyl)amino)-5-fluoropyrimidin-4-yl)amino)benzamide] | 150 to 200 nM | B (B is 0.3 to 0.5) | A (A is <0.2) |
| O=C1CCC(Nc2ccc(N3CCN(CC[C@H]4CC[C@H](NC(=O)c5ccc(Nc6ncc(F)c(Nc7ccc(C(=O)Nc8ccccc8Cl)cc7)n6)cc5)CC4)CC3)c(F)c2)C(=O)N1 (stereo partly drawn) [Compound 86, N-(2-chlorophenyl)-4-((2-((4-(((1r,4r)-4-(2-(4-(4-((2,6-dioxopiperidin-3-yl)amino)-2-fluorophenyl)piperazin-1-yl)ethyl)cyclohexyl)carbamoyl)phenyl)amino)-5-fluoropyrimidin-4-yl)amino)benzamide] | 50 to 100 nM | A (A is <0.3) | A (A is <0.2) |
| O=C1CCC(c2ccc(N3CCN(CCC4CCN(NC(=O)c5ccc(Nc6ncc(F)c(Nc7ccc(C(=O)Nc8ccccc8Cl)cc7)n6)cc5)CC4)CC3)cn2)C(=O)N1 (stereo not drawn) [Compound 88, N-(2-chlorophenyl)-4-((2-((4-((4-(2-(4-(6-(2,6-dioxopiperidin-3-yl)pyridin-3-yl)piperazin-1-yl)ethyl)piperidin-1-yl)carbamoyl)phenyl)amino)-5-fluoropyrimidin-4-yl)amino)benzamide] | < 50 nM | A (A is <0.3) | A (A is <0.2) |
| O=C1CCC(c2ccc(N3CCN(CCC4CCN(NC(=O)c5ccc(Nc6ncc(F)c(Nc7ccc(C(=O)Nc8ccccc8F)cc7)n6)cc5)CC4)CC3)cc2)C(=O)N1 (stereo not drawn) [Compound 90, 4-[[2-[4-[[4-[2-[4-[4-(2,6-dioxo-3-piperidyl)phenyl]piperazin-1-yl]ethyl]-1-piperidyl]carbamoyl]anilino]-5-fluoro-pyrimidin-4-yl]amino]-N-(2-fluorophenyl)benzamide] | < 50 nM | A (A is <0.3) | A (A is <0.2) |
| O=C1CCC(c2ccc(N3CCN(CCC4CCN(NC(=O)c5ccc(Nc6ncc(F)c(Nc7ccc(NC(=O)c8ccccc8Cl)cc7)n6)cc5)CC4)CC3)cc2)C(=O)N1 (stereo not drawn) [Compound 93, 2-chloro-N-(4-((2-((4-((4-(2-(4-(4-(2,6-dioxopiperidin-3-yl)phenyl)piperazin-1-yl)ethyl)piperidin-1-yl)carbamoyl)phenyl)amino)-5-fluoropyrimidin-4-yl)amino)phenyl)benzamide] | < 50 nM | A (A is <0.3) | A (A is <0.2) |
| O=C1CC[C@H](Nc2ccc(N3CCN(CCC4CCN(NC(=O)c5ccc(Nc6ncc(F)c(Nc7ccc(C(=O)Nc8ccccc8Cl)cc7)n6)cc5)CC4)CC3)c(F)c2)C(=O)N1 [Compound 94, (S)—N-(2-chlorophenyl)-4-((2-((4-((4-(2-(4-(4-((2,6-dioxopiperidin-3-yl)amino)-2-fluorophenyl)piperazin-1-yl)ethyl)piperidin-1-yl)carbamoyl)phenyl)amino)-5-fluoropyrimidin-4-yl)amino)benzamide] | < 50 nM | A (A is <0.3) | A (A is <0.2) |
| O=C1CC[C@H](Nc2ccc(N3CCN(CCC4CCN(NC(=O)c5ccc(Nc6ncc(F)c(Nc7ccc(C(=O)Nc8ccccc8Cl)cc7)n6)cc5)CC4)CC3)cc2F)C(=O)N1 [Compound 95, (S)—N-(2-chlorophenyl)-4-((2-((4-((4-(2-(4-(4-((2,6-dioxopiperidin-3-yl)amino)-3-fluorophenyl)piperazin-1-yl)ethyl)piperidin-1-yl)carbamoyl)phenyl)amino)-5-fluoropyrimidin-4-yl)amino)benzamide] | 50 to 100 nM | B (B is 0.3 to 0.5) | A (A is <0.2) |
| O=C1CCC(c2ccc(N3CCC(O)(CCC4CCN(NC(=O)c5ccc(Nc6ncc(F)c(Nc7ccc(C(=O)Nc8ccccc8Cl)cc7)n6)cc5)CC4)CC3)c(F)c2)C(=O)N1 (stereo not drawn) [Compound 96, N-(2-chlorophenyl)-4-((2-((4-((4-(2-(1-(4-(2,6-dioxopiperidin-3-yl)-2-fluorophenyl)-4-hydroxypiperidin-4-yl)ethyl)piperidin-1-yl)carbamoyl)phenyl)amino)-5-fluoropyrimidin-4-yl)amino)benzamide] | < 50 nM | A (A is <0.3) | A (A is <0.2) |
| O=C1CCC(c2ccc(N3CCC(CN4CC5(CCN(NC(=O)c6ccc(Nc7ncc(F)c(Nc8ccc(C(=O)Nc9ccccc9Cl)cc8)n7)cc6)CC5)C4)CC3)c(F)c2)C(=O)N1 (stereo not drawn) [Compound 97, N-(2-chlorophenyl)-4-((2-((4-((2-((1-(4-(2,6-dioxopiperidin-3-yl)-2-fluorophenyl)piperidin-4-yl)methyl)-2,7-diazaspiro[3.5]nonan-7-yl)carbamoyl)phenyl)amino)-5-fluoropyrimidin-4-yl)amino)benzamide] | 50 to 100 nM | B (B is 0.3 to 0.5) | A (A is <0.2) |
| O=C1CCC(c2ccc(N3CCN(CCC4CCN(NC(=O)c5ccc(Nc6ncc(F)c(Nc7ccc(C(=O)Nc8ccccc8Cl)cn7)n6)cc5)CC4)CC3)cc2)C(=O)N1 (stereo not drawn) [Compound 98, N-(2-chlorophenyl)-6-((2-((4-((4-(2-(4-(4-(2,6-dioxopiperidin-3-yl)phenyl)piperazin-1-yl)ethyl)piperidin-1-yl)carbamoyl)phenyl)amino)-5-fluoropyrimidin-4-yl)amino) nicotinamide] | 100 to 150 nM | A (A is <0.3) | A (A is <0.2) |
